Results on one molecule are retold here after patent US10940156B2, “Neuroactive steroids, compositions, and uses thereof” (Sage Therapeutics, Inc., priority 2016, dated 2021).

A short description of data set [1]: 14-day rat toxicology study. Type of data set: in vivo. The following applies: for NOAEL at 14 days: in vivo, 14-day daily administration, solution in Labrasol. The procedure: (§1) The compound was assessed in 14-day rat and dog toxicology studies with daily administration of Compound 9 as a solution in HPBCD in dogs and Labrasol® in rats.
(§2) The NOAEL in rats was 3 mg/kg (females) and 22.5 mg/kg (males), and was 2.5 mg/kg in dogs. […] A single observation of mortality occurred in one female rat at the high dose in a toxicokinetic study which was suspected to have been related to exaggerated pharmacology.

The test system of a further data set is rats. Put plainly: 14-day rat toxicology study. The data set is classed as in vivo. The procedure:
as §1, §2

Data set [2] can be described thus: 14-day dog toxicology study. Type of data set: in vivo. The following applies: dog, in vivo; dogs; 14-day daily administration, solution in HPBCD. The procedure: as §1, §2
Another data set concerns dogs. Put plainly: 14-day dog toxicology study. The data set is classed as in vivo. The procedure:
as §1, §2

The subject of data set [3] is seizures arising from chemoconvulsants, proconvulsant stimuli, and genetic predisposition. Nature of the data set: preclinical anticonvulsant models. Type of data set: in vivo, rodents. The following applies: oral. The procedure: FIGS. 3A and 3B depict exemplary preclinical anticonvulsant efficacy in rodents.
as §1

Data set [4] can be described thus: toxicology and safety pharmacology studies across species. Type of data set: in vivo. The procedure: as §1
Expected risks are those identified during the toxicology and safety pharmacology studies for Compound 9 and clinical study Example 2. […] This will be monitored in the clinical study using two scales, one designed to monitor “sleepiness” (Stanford Sleepiness Scale) and one to monitor deeper sedation (Modified Observer's Assessment of Alertness/Sedation).

For data set [5], the system named is healthy volunteers. Nature of the data set: Phase I single ascending dose (SAD) study: MOAA/S sedation and adverse events. The data set is classed as in vivo, human. The text has this:
Example 2. A Phase I, Double-Blind, Placebo-Controlled, Single Ascending Dose Study to Determine the Maximum Tolerated Dose (MTD), Pharmacokinetics and Pharmacodynamics of Compound 9 Oral Solution in Healthy Volunteers and the Safety, Tolerability, and Pharmacokinetics of Compound 9 in Subjects with Essential Tremor
This four-part study will assess the effects of a single dose of Compound 9. The initial part of the study is a double-blind, placebo-controlled single ascending dose (SAD) design in healthy, adult volunteers with the objective of identifying the maximum tolerated dose (MTD) and pharmacokinetic (PK) profiles of Compound 9 Oral Solution. Escalation to the next dose will be undertaken only after safety and PK data have been reviewed by the Safety Review Committee (SRC) and agreement reached that it is safe to increase the dose. The SRC will not receive any unblinded PK data unless it is agreed upon by the SRC to unblind a subject and/or cohort based on the completed safety review.
In each of the SAD cohorts, subjects will be randomly assigned to receive either Compound 9 (six subjects) or placebo (two subjects) in a blinded manner. Cohort 1 will receive Dose 1, Cohort 2 will receive Dose 2, and so on. With the exception of the Food cohort, study drug will be administered in a fasting state (no food and only water for the previous 12 hours) and a standard Phase 1 unit diet will be administered beginning approximately four to five hours after dosing. […]
The MOAA/S allows exploration of deeper sedation states than the SSS. […] If a MOAA/S score of 3 or less (≤3) is observed, confirm the score by waiting approximately 10 minutes and readministering the MOAA/S assessment. […]

Data set [6] has as its system healthy volunteers. Put plainly: Phase I multiple ascending dose (MAD) study: MOAA/S sedation. Type of data set: in vivo, human. The text has this:
Example 3. Phase I, Double-Blind, Placebo-Controlled, Multiple Ascending Dose Study to Determine Safety, Tolerability, Pharmacokinetics and Pharmacodynamics of Compound 9 Oral Solution in Healthy Volunteers
This study comprises a double blind, placebo-controlled multiple ascending dose (MAD) study followed by an open-label drug-drug interaction study (DDI) without placebo in healthy, adult volunteers. Four cohorts of 12 subjects each will be recruited for a total of 48 subjects. Subjects in Cohorts 1, 2, and 3 will participate in the multiple-ascending-dose (MAD) part of the study, and subjects in Cohort 4 will participate in the drug-drug-interaction (DDI) part of the study.
The objective of the MAD part of the study is to determine the safety, tolerability, pharmacokinetics (PK), and pharmacodynamic (PD) profile of seven days of dosing with Compound 9 Oral Solution (henceforth referred to as Compound 9).
The MOAA/S allows exploration of deeper sedation states than the SSS. All time points are relative to the time of dosing. If the planned time point is between the hours of 22:00 h and 08:00 h each day or if the subject has been discharged before the +72 hour time point, the assessment need not be conducted at that time point. If a subject is difficult to awaken, an additional MOAA/S assessment may be performed at the discretion of the PI. Any MOAA score of 3 or less must be repeated. […]

Where [7] appears, read: male and female rats, non-adverse, reversible, without microscopic correlates.

Bounds are passed on as bounds.

Turning to `C[C@@]1(O)CC[C@H]2[C@H](CC[C@@H]3[C@@H]2CC[C@]2(C)[C@@H](C(=O)Cn4cc(C#N)cn4)CC[C@@H]32)C1` [Compound 9], the area under the curve (AUC) at 14 day in data set [1] (plasma, 22.5 mg/kg, male rat 14-day toxicology, read-out: AUC at lowest NOAEL exposure in toxicology studies) stood at 5050 ng·h/mL. This molecule had a no observed adverse effect level (NOAEL) at 14 days in data set [1] (rat, female rats) of 3 mg/kg. This molecule also returned an NOAEL at 14 days in data set [1] (rat, male rats) of 22.5 mg/kg. Moreover, in data set [1] (rat, plasma, 3 mg/kg, female rats, Day 14, read-out: estimated human Cmax based on the lowest NOAEL Day 14 Cmax in female rats), the Cmax was 400 ng/mL. Further, the mortality result in the data set on rats (female rat, high dose, toxicokinetic study, suspected related to exaggerated pharmacology) was “one”. In addition, in the data set on rats (high dose male and female rats), the “increases in AST/ALT” value is < 2 fold and the microscopic liver finding result is recorded as “increased incidence of minimal hepatocellular vacuolation”. In the data set on rats (setting [7]), the APTT result was “slight prolongation of APTT” and the “urine pH” value was “slight increase in urine pH”. Further, the “adverse effects in main toxicology study” value with rats (rats) is “no adverse effects”. This molecule yielded an NOAEL at 14 days in data set [2] of 2.5 mg/kg. Moreover, in the data set on dogs, the “adverse effects in main toxicology study” value was “no adverse effects”, the core body temperature entry is on record as “transient decreases in core body temperature” and the heart rate result is “transient increases in heart rate”. In addition, the renal microscopic finding result with dogs (well-documented vehicle effect) is “minimal renal tubular vacuolation”. Besides, the anticonvulsant activity result in data set [3] is “orally active in preclinical anticonvulsant models, and suppressed seizures”. In addition, the “most common drug-related effect” value in data set [4] (across species, studies and doses) was “dose-related sedation”. Moreover, the “manifestations of exaggerated pharmacology” value in data set [4] (nonclinical studies) is “sedation and ataxia”. Further, the “subjects with MOAA/S ≤2” value in the data set with healthy volunteers [5] (55 mg single dose, stopping criteria not met) turned out to be 2 subjects. For the same molecule, the “subjects with MOAA/S ≤2” value in the data set on healthy volunteers [5] (66 mg single dose, stopping criteria met) worked out at 2 subjects. Further, in the data set with healthy volunteers [5] (five SAD cohorts dosed, oral solution, study ongoing), the “adverse events possibly or probably related to the study drug” value is “mild drowsiness, mild confusion, somnolence, headache, orthostatic heart rate increase, aloofness, anxiety, sore throat and mild abdominal discomfort”. In addition, in the data set on healthy volunteers [6] (35 mg group, all at 1 hour post-dose), the “subjects with MOAA/S scores of 1 or 2 (deep sedation)” value is on record as “two”. The “mean MOAA/S” value with healthy volunteers [6] (by 4 hours post-dose) was “approached baseline values”.
